Where “and” joins values, the source holds several entries; their conditions need not be identical. Equal entries are not always repeated. Where two headings read alike, the source gives them in different places.
Columns and labels:
[1] = tested on: LUAD-0002AS1 cells (KIF5B::RET); test: Dose-response western blotting, EC50 for inhibition of protein phosphorylation; assay type: cell-based; conditions: Homo sapiens, LUAD-0002AS1, 2 h, densitometry
TT cells = test: Growth inhibition (alamarBlue, 96 h); assay type: cell-based, human; conditions: for raw viability signal (Source Data Fig. 3b-c): replicate sets
[2] = Animal weight of tumor-bearing mice; conditions: for Animal Weight (g), Mean: Ba/F3-KIF5B::RET tumor-bearing mice (Ext. Data Fig 8i); for Animal Weight: individual animals

**Q.** Which results are given for `CO[C@]1(C(=O)N[C@@H](C)c2ccc(-n3cc(F)cn3)nc2)CC[C@H](c2nc(C)cc(Nc3cc(C)[nH]n3)n2)CC1` [Pralsetinib]?
**A.** EC50 ([1]; read-out: EC50 for Inhibition of Protein Phosphorylation (95% CI), ERK1/2 T202/Y204): 3.5 nM; EC50 ([1]; read-out: EC50 for Inhibition of Protein Phosphorylation (95% CI), MEK1/2 S217/S221): 0.9 nM; EC50 ([1]; read-out: EC50 for Inhibition of Protein Phosphorylation (95% CI), P70 RSK T421/S424): 1.7 nM; EC50 ([1]; read-out: EC50 for Inhibition of Protein Phosphorylation (95% CI), RET Y905): 1.1 nM; EC50 ([1]; read-out: EC50 for Inhibition of Protein Phosphorylation (95% CI), S6RP S235/S236): 1.1 nM; raw viability signal (Source Data Fig. 3b-c) (TT cells; 0.01 nM): 22929.2 and 25490.7 and 28433.6 and 13300.2 and 25151.2; raw viability signal (Source Data Fig. 3b-c) (TT cells; 0.1 nM): 22974.2 and 25164.4 and 33337.3 and 15066.6 and 24111.4; raw viability signal (Source Data Fig. 3b-c) (TT cells; 1 nM): 21557.9 and 25049.8 and 31833.5 and 13551.8 and 21692.4; raw viability signal (Source Data Fig. 3b-c) (TT cells; 10 nM): 15259.3 and 23182.3 and 22444.5 and 12016.9 and 18286.5; raw viability signal (Source Data Fig. 3b-c) (TT cells; 100 nM): 9067.36 and 11673.9 and 13386.9 and 6206.3 and 13339.4; raw viability signal (Source Data Fig. 3b-c) (TT cells; 1000 nM): 7976.19 and 8542.52 and 11087 and 4402.24 and 11387.8; raw viability signal (Source Data Fig. 3b-c) (TT cells; 10000 nM): 7016.43 and 7739.61 and 10148.3 and 3836.13 and 9483.47; IC50 (TT cells; Homo sapiens, 96 h, read-out: IC50 for Inhibition of Growth (95% CI)): 30 nM; Animal Weight, Mean ([2]; Ba/F3-KIF5B::RET G810R (Fig 8f), Pralsetinib 10 mg/kg BID, day 1): 26.74 g; Animal Weight, Mean ([2]; Ba/F3-KIF5B::RET G810R (Fig 8f), Pralsetinib 10 mg/kg BID, day 4): 26.42 g; Animal Weight, Mean ([2]; Ba/F3-KIF5B::RET G810R (Fig 8f), Pralsetinib 10 mg/kg BID, day 8): 25.72 g; Animal Weight, Mean ([2]; Ba/F3-KIF5B::RET G810R (Fig 8f), Pralsetinib 10 mg/kg BID, day 11): 26.48 g; Animal Weight, Mean ([2]; Ba/F3-KIF5B::RET G810R (Fig 8f), Pralsetinib 10 mg/kg BID, day 15): 26.66 g; Animal Weight, Mean ([2]; Ba/F3-KIF5B::RET G810R (Fig 8g), Pralsetinib 30 mg/kg BID, day 1): 25.3 g; Animal Weight, Mean ([2]; Ba/F3-KIF5B::RET G810R (Fig 8g), Pralsetinib 30 mg/kg BID, day 4): 26.8 g; Animal Weight, Mean ([2]; Ba/F3-KIF5B::RET G810R (Fig 8g), Pralsetinib 30 mg/kg BID, day 8): 26.6 g; Animal Weight, Mean ([2]; Ba/F3-KIF5B::RET G810R (Fig 8g), Pralsetinib 30 mg/kg BID, day 11): 25.3 g; Animal Weight, Mean ([2]; Ba/F3-KIF5B::RET G810R (Fig 8g), Pralsetinib 30 mg/kg BID, day 15): 26.0 g; Animal Weight (g), Mean ([2]; 3 mg/kg BID, day 1): 26.4 g; Animal Weight (g), Mean ([2]; 3 mg/kg BID, day 4): 26.5 g; Animal Weight (g), Mean ([2]; 3 mg/kg BID, day 8): 26.3 g; Animal Weight (g), Mean ([2]; 3 mg/kg BID, day 11): 27.3 g; Animal Weight (g), Mean ([2]; 3 mg/kg BID, day 15): 27.9 g; Animal Weight (g), Mean ([2]; 10 mg/kg BID, day 1): 26.2 g; Animal Weight (g), Mean ([2]; 10 mg/kg BID, day 4): 26.8 g; Animal Weight (g), Mean ([2]; 10 mg/kg BID, day 8): 26.6 g; Animal Weight (g), Mean ([2]; 10 mg/kg BID, day 11): 26.8 g; Animal Weight (g), Mean ([2]; 10 mg/kg BID, day 15): 27.7 g; Animal Weight (g), Mean ([2]; 30 mg/kg BID, day 1): 26.2 g; Animal Weight (g), Mean ([2]; 30 mg/kg BID, day 4): 26.3 g; Animal Weight (g), Mean ([2]; 30 mg/kg BID, day 8): 25.8 g; Animal Weight (g), Mean ([2]; 30 mg/kg BID, day 11): 26.9 g; Animal Weight (g), Mean ([2]; 30 mg/kg BID, day 15): 27.4 g; Animal Weight (g), Mean ([2]; 60 mg/kg BID, day 1): 25.8 g; Animal Weight (g), Mean ([2]; 60 mg/kg BID, day 4): 25.8 g; Animal Weight (g), Mean ([2]; 60 mg/kg BID, day 8): 25.6 g; Animal Weight (g), Mean ([2]; 60 mg/kg BID, day 11): 26.0 g; Animal Weight (g), Mean ([2]; 60 mg/kg BID, day 15): 26.0 g; Animal Weight ([2]; LUAD-0077AS1 PDX, Pralsetinib 30 mg/kg BID, treatment day 0): 23 g (2×) and 26 g (2×) and 21 g (2×) and 24 g and 25 g (2×) and 22 g; Animal Weight ([2]; LUAD-0077AS1 PDX, Pralsetinib 30 mg/kg BID, treatment day 4): 26 g (2×) and 23 g and 21 g (2×) and 24 g (2×) and 25 g (2×) and 22 g; Animal Weight ([2]; LUAD-0077AS1 PDX, Pralsetinib 30 mg/kg BID, treatment day 7): 26 g (2×) and 23 g and 21 g and 22 g (2×) and 25 g (2×) and 27 g and 24 g; Animal Weight ([2]; LUAD-0087AS2 PDX, Pralsetinib 30 mg/kg BID, treatment day 0): 28 g and 27 g (2×) and 23 g and 26 g; Animal Weight ([2]; LUAD-0087AS2 PDX, Pralsetinib 30 mg/kg BID, treatment day 3): 28 g and 27 g and 26 g and 24 g (2×); Animal Weight ([2]; LUAD-0087AS2 PDX, Pralsetinib 30 mg/kg BID, treatment day 7): 28 g and 26 g (2×) and 24 g and 25 g; Animal Weight ([2]; LUAD-0087AS2 PDX, Pralsetinib 30 mg/kg BID, treatment day 10): 28 g and 27 g and 26 g and 25 g (2×); Animal Weight ([2]; LUAD-0087AS2 PDX, Pralsetinib 30 mg/kg BID, treatment day 14): 29 g and 27 g and 26 g and 25 g (2×); Animal Weight ([2]; LUAD-0087AS2 PDX, Pralsetinib 30 mg/kg BID, treatment day 17): 29 g and 25 g (3×) and 26 g; Animal Weight ([2]; LUAD-0087AS2 PDX, Pralsetinib 30 mg/kg BID, treatment day 21): 28 g and 24 g and 25 g (2×) and 26 g; Animal Weight ([2]; LUAD-0087AS2 PDX, Pralsetinib 30 mg/kg BID, treatment day 24): 28 g and 25 g (3×) and 26 g; Animal Weight ([2]; LUAD-0087AS2 PDX, Pralsetinib 30 mg/kg BID, treatment day 29): 28 g and 25 g (3×) and 26 g; Animal Weight ([2]; LUAD-0087AS2 PDX, Pralsetinib 30 mg/kg BID, treatment day 32): 29 g and 25 g (2×) and 26 g (2×); Animal Weight ([2]; LUAD-0087AS2 PDX, Pralsetinib 30 mg/kg BID, treatment day 35): 29 g and 25 g (3×) and 26 g; Animal Weight ([2]; LUAD-0087AS2 PDX, Pralsetinib 30 mg/kg BID, treatment day 38): 25 g (3×) and 24 g and 26 g; Animal Weight ([2]; LUAD-0087AS2 PDX, Pralsetinib 30 mg/kg BID, treatment day 42): 28 g and 25 g (2×) and 26 g (2×); Animal Weight ([2]; LUAD-0087AS2 PDX, Pralsetinib 30 mg/kg BID, treatment day 45): 28 g and 25 g (2×) and 26 g (2×)

— PMC10518257 (Nature Cancer, 2023)
